# System: tau protein
# Assay: Tau protein in vitro degradation assay (Western blot, Tau-13 antibody)
# Format: cell-based, human
# Conditions: SK-N-SH cells; 72 hours of incubation; tested at 300 nM, 100 nM, 33 nM and 11 nM; Western blot, Tau-13 antibody
# Outline: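 SK-N-SH cells, seeded ≥18 h beforehand, were incubated 72 h with tau PROTACs at 1000, 300 and 100 nM or at 300, 100, 33 and 11 nM. Lysates in protease-inhibitor buffer were resolved by SDS-PAGE; tau quantified by Western blot with Tau-13 antibody recognising all human tau forms.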
row,SMILES,Degradation activity* (highest amount of degradation observed at any dosage; tau protein remaining)
1,"Cn1c2ccncc2c2ccc(-c3ccc(O[C@H]4C[C@H](OC5CCN(CCCCCOc6ccc7c(c6)C(=O)N(C6CCC(=O)NC6=O)C7=O)CC5)C4)nc3)cc21 (stereo partly shown) [Compound 82, 2-(2,6-dioxopiperidin-3-yl)-5-((5-(4-((1r,3r)-3-((5-(5-methyl-5H-pyrido[4,3-b]indol-7-yl)pyridin-2-yl)oxy)cyclobutoxy)piperidin-1-yl)pentyl)oxy)isoindoline-1,3-dione]",C (>80% tau protein remaining after 72 hours of incubation with the test compound)
2,"O=C1CCC(N2C(=O)c3ccc(OCCCCCc4ccc(O[C@H]5C[C@H](Oc6ccc(-c7ccc8c(c7)[nH]c7ccncc78)cn6)C5)cn4)cc3C2=O)C(=O)N1 (stereo partly shown) [Compound 83, 5-((5-(5-((1r,3r)-3-((5-(5H-pyrido[4,3-b]indol-7-yl)pyridin-2-yl)oxy)cyclobutoxy)pyridin-2-yl)pentyl)oxy)-2-(2,6-dioxopiperidin-3-yl)isoindoline-1,3-dione]",C (>80% tau protein remaining after 72 hours of incubation with the test compound)
3,"Cn1c2ccncc2c2ccc(-c3ccc(O[C@H]4C[C@H](Oc5cccc(OCCCCCCOc6ccc7c(c6)C(=O)N(C6CCC(=O)NC6=O)C7=O)c5)C4)nc3)cc21 (stereo partly shown) [Compound 84, 2-(2,6-dioxopiperidin-3-yl)-5-((6-(3-((1r,3r)-3-((5-(5-methyl-5H-pyrido[4,3-b]indol-7-yl)pyridin-2-yl)oxy)cyclobutoxy)phenoxy)hexyl)oxy)isoindoline-1,3-dione]",C (>80% tau protein remaining after 72 hours of incubation with the test compound)
4,"Cn1c2ccncc2c2ccc(-c3ccc(OCCCCCOCCCCCO[C@H]4C[C@H](Oc5ccc6c(c5)C(=O)N(C5CCC(=O)NC5=O)C6=O)C4)nc3)cc21 (stereo partly shown) [Compound 85, 2-(2,6-dioxopiperidin-3-yl)-5-((1r,3r)-3-((5-((5-((5-(5-methyl-5H-pyrido[4,3-b]indol-7-yl)pyridin-2-yl)oxy)pentyl)oxy)pentyl)oxy)cyclobutoxy)isoindoline-1,3-dione]",A (≤50% tau protein remaining after 72 hours of incubation with the test compound)
5,"O=C1CCC(N2C(=O)c3cccc(NCCOCCOCCOCCOCCOc4ccc(-c5ccc6c(c5)[nH]c5ccncc56)cc4)c3C2=O)C(=O)N1 (stereo not shown) [Compound 86, 4-((14-(4-(5H-pyrido[4,3-b]indol-7-yl)phenoxy)-3,6,9,12-tetraoxatetradecyl)amino)-2-(2,6-dioxopiperidin-3-yl)isoindoline-1,3-dione]",C (>80% tau protein remaining after 72 hours of incubation with the test compound)
6,"O=C1CCC(N2C(=O)c3cnc(OCCOCCOCCOCCOCCOc4ccc(-c5ccc6c(c5)[nH]c5ccncc56)cn4)cc3C2=O)C(=O)N1 (stereo not shown) [Compound 87, 6-((14-((5-(5H-pyrido[4,3-b]indol-7-yl)pyridin-2-yl)oxy)-3,6,9,12-tetraoxatetradecyl)oxy)-2-(2,6-dioxopiperidin-3-yl)-1H-pyrrolo[3,4-c]pyridine-1,3 (2H)-dione]",C (>80% tau protein remaining after 72 hours of incubation with the test compound)
7,"O=C1CCC(N2C(=O)c3ccc(OCCOCCOCCOCCOCCOc4ccc(-c5ccc6c7cnccc7n(CC(F)(F)F)c6c5)cn4)cc3C2=O)C(=O)N1 (stereo not shown) [Compound 88, 2-(2,6-dioxopiperidin-3-yl)-5-((14-((5-(5-(2,2,2-trifluoroethyl)-5H-pyrido[4,3-b]indol-7-yl)pyridin-2-yl)oxy)-3,6,9,12-tetraoxatetradecyl)oxy)isoindoline-1,3-dione]",A (≤50% tau protein remaining after 72 hours of incubation with the test compound)
8,"Cn1c2ccncc2c2ccc(-c3ccc(OCCCCCOCCOC(CC4CCN(c5ccc6c(c5)C(=O)N(C5CCC(=O)NC5=O)C6=O)CC4)C(F)(F)F)nc3)cc21 (stereo not shown) [Compound 89, 2-(2,6-dioxopiperidin-3-yl)-5-(4-(3,3,3-trifluoro-2-(2-((5-((5-(5-methyl-5H-pyrido[4,3-b]indol-7-yl)pyridin-2-yl)oxy)pentyl)oxy)ethoxy)propyl)piperidin-1-yl)isoindoline-1,3-dione]",C (>80% tau protein remaining after 72 hours of incubation with the test compound)
9,"Cn1c2ccncc2c2ccc(-c3ccc(OCC#CCOCCCCOCCCCOc4ccc5c(c4)C(=O)N(C4CCC(=O)NC4=O)C5=O)nc3)cc21 (stereo not shown) [Compound 90, 2-(2,6-dioxopiperidin-3-yl)-5-(4-(4-((4-((5-(5-methyl-5H-pyrido[4,3-b]indol-7-yl)pyridin-2-yl)oxy)but-2-yn-1-yl)oxy)butoxy)butoxy)isoindoline-1,3-dione]",A (≤50% tau protein remaining after 72 hours of incubation with the test compound)
10,"Cn1c2ccncc2c2ccc(-c3ccc(O[C@H]4C[C@H](OCCCCCCCCN5CCN(c6ccc7c(c6)C(=O)N(C6CCC(=O)NC6=O)C7=O)CC5)C4)nc3)cc21 (stereo partly shown) [Compound 91, 2-(2,6-dioxopiperidin-3-yl)-5-(4-(8-((1r,3r)-3-((5-(5-methyl-5H-pyrido[4,3-b]indol-7-yl)pyridin-2-yl)oxy)cyclobutoxy)octyl)piperazin-1-yl)isoindoline-1,3-dione]",C (>80% tau protein remaining after 72 hours of incubation with the test compound)
11,"Cn1c2ccncc2c2ccc(-c3cnc(OCCOCCOCCOCCOCCOc4ccc5c(c4)C(=O)N(C4CCC(=O)NC4=O)C5=O)c(Cl)c3)cc21 (stereo not shown) [Compound 92, 5-((14-((3-chloro-5-(5-methyl-5H-pyrido[4,3-b]indol-7-yl)pyridin-2-yl)oxy)-3,6,9,12-tetraoxatetradecyl)oxy)-2-(2,6-dioxopiperidin-3-yl)isoindoline-1,3-dione]",A (≤50% tau protein remaining after 72 hours of incubation with the test compound)
12,"Cn1c2ccncc2c2ccc(-c3ccc(C(F)(F)COCCCCCOCCCCCCOc4ccc5c(c4)C(=O)N(C4CCC(=O)NC4=O)C5=O)nc3)cc21 (stereo not shown) [Compound 93, 5-((6-((5-(2,2-difluoro-2-(5-(5-methyl-5H-pyrido[4,3-b]indol-7-yl)pyridin-2-yl)ethoxy)pentyl)oxy)hexyl)oxy)-2-(2,6-dioxopiperidin-3-yl)isoindoline-1,3-dione]",C (>80% tau protein remaining after 72 hours of incubation with the test compound)
13,"Cn1c2ccncc2c2ccc(-c3ccc(O[C@H]4C[C@H](Oc5ccc(C#CCCCOc6ccc7c(c6)C(=O)N(C6CCC(=O)NC6=O)C7=O)nc5)C4)nc3)cc21 (stereo partly shown) [Compound 94, 2-(2,6-dioxopiperidin-3-yl)-5-((5-(5-((1r,3r)-3-((5-(5-methyl-5H-pyrido[4,3-b]indol-7-yl)pyridin-2-yl)oxy)cyclobutoxy)pyridin-2-yl)pent-4-yn-1-yl)oxy)isoindoline-1,3-dione]",C (>80% tau protein remaining after 72 hours of incubation with the test compound)

# Source: patent US11458123B2 (Arvinas, Inc., priority 2016, dated 2022)
